# Test results: patent publication US20210283163A1, “COMPOSITIONS AND METHODS FOR THE TREATMENT OF ACUTE AND CHRONIC PRURITIS” (Duke University, priority 2018, published 2021)
# What was measured:
# hTRPA1 [1] = target: T1, hTRPA1 (Homo sapiens, UniProt O75762); assay: Whole-cell patch clamp, inward currents in HEK293 cells expressing hTRPA1; assay type: cell-based
# Experimental: Cell Culture and Transfection. CD4^+ Myla cell line was cultured in RPMI 1640 media (GIBCO), supplemented with 2 mM Glutamine (GIBCO), 100 U/mL IL-2 (Sigma), 100 U/mL IL-4 (Sigma), and 10% human AB serum (Sigma). HuT 102 cell line was cultured in RPMI 1640 supplemented with pyruvate, HEPES, and 10% (v/v) fetal bovine serum (HyClone). HEK293-hTRPA1 stable cell line was cultured in MEM (GIBCO) containing 2 mM Glutamine, 4 μg/mL Blasticidin, 10% FBS (v/v). B16 and CHO cells were cultured in high glucose (4.5 g/L) Dulbecco's Modified Eagle's Medium (GIBCO) containing 10% (v/v) fetal bovine serum (GIBCO). Culture media were supplemented with 50 units/mL of penicillin and 50 μg/mL streptomycin, and cultures were maintained with 5% CO2 in 37° C. incubator. Transfection (2 μg cDNA) was performed with Lipofectamine™ 2000 Reagent (Invitrogen) at 80% confluency and the transfected cells were cultured in the same media for 48 hr before electrophysiological and biochemical studies.
# (§1) Whole-Cell Patch Clamp Recordings in HEK293 Cells, CHO Cells, and DRG Neurons. Whole-cell patch clamp recordings were performed at room temperature using an Axopatch-200B amplifier (Axon Instruments) with a Digidata 1440B (Axon Instruments). In this study, we only examined small-diameter mouse DRG neurons (<25 μM) and small-diameter human DRG neurons (<55 μM). The patch pipettes were pulled from borosilicate capillaries (World Precision Instruments) using a P-97 Flaming/Brown micropipette puller (Sutter Instrument). Pipette resistance was 4-6 MΩ for whole-cell and outside-out recording. For inward current recordings in mouse and human DRG neurons, HEK293 cells, and CHO cells, the internal solution contains (in mM): 140 CsCl, 10 EGTA, 10 HEPES, and 2 Mg-ATP, adjusted to pH 7.3 with CsOH. Whole cell recordings were performed in an extracellular solution that contains (in mM): 140 NaCl, 5 KCl, 2 MgCl2, 10 HEPES, and 10 glucose, adjusted to pH 7.4 with NaOH and osmolarity to 300-310 mOsm. […] Action potential recordings were performed in small-diameter DRG neurons, with the following solutions: i) internal pipette solution contains: 126 mM K-gluconate, 10 mM NaCl, 1 mM MgCl2, 10 mM EGTA, 10 mM HEPES and 2 mM Na-ATP, adjusted to pH 7.4 with KOH and osmolarity to 295-300 mOsm), and ii) extracellular solution contains: 140 mM NaCl, 5 mM KCl, 2 mM MgCl2, 2 mM CaCl2, 10 mM HEPES, 10 mM glucose, adjusted to pH 7.4 with KOH.
# DRG neurons = assay: Calcium imaging in cultured DRG neurons of Pirt-GCaMP3 mice; assay type: cell-based, mouse; conditions: for DRG neurons showing Ca2+ increase / responses: 544 neurons from 3 mice
# Experimental: Primary Cultures of Mouse and Human Sensory Neurons. […] Cells were mechanically dissociated with a flame polished Pasteur pipette in the presence of 0.05% DNase I (Sigma).
# Ca^2+ Imaging. […] The imaging buffer includes 140 mM NaCl, 10 mM D-(+)-Glucose, 1 mM MgCl2, 2 mM CaCl2, 5 mM KCl, 10 mM HEPES, pH=7.4, osmolarity=320 mOsm/L. Calcium signals were measured using green emitted light in a 3 s interval. Ca ^2+ signal amplitudes were presented as ΔF/F0=(Ft−F0)/F0 as ratio of fluorescence difference (Ft−F0) to basal value (F0). The average fluorescence intensity in the baseline period was taken as F0. Ca ^2+ imaging was also analyzed in HEK293-TRPA1 cell line after loading cells with […] fura2-AM (Invitrogen) for 40 min in the Ca^2+ imaging buffer. Ca^2+ imaging protocol was a ratio metric method with 340/380-nm wavelength light for dual excitation. Data were presented as ΔR/R0, determined as the fraction ΔR (Rt−R0) of the increase of a given ratio over baseline ratio (R0).
# [2] = test system: small-diameter DRG neurons; assay: Patch clamp, inward currents and action potentials in small-diameter mouse DRG neurons; assay type: cell-based; conditions: for small-diameter neurons responding with inward currents or action potentials: AITC 15/90, miR-711 15/130
# Experimental: Primary Cultures of Mouse and Human Sensory Neurons. DRGs or TGs were removed aseptically from mice (4-6 weeks) and incubated with collagenase (1.25 mg/mL, Roche)/dispase-II (2.4 units/mL, Roche) at 37° C. for 90 min, then digested with 0.25% trypsin for 8 min at 37° C., followed by 0.25% trypsin inhibitor. Cells were mechanically dissociated with a flame polished Pasteur pipette in the presence of 0.05% DNase I (Sigma). DRG cells were plated on glass coverslips and grown in a neurobasal defined medium (with 2% B27 supplement, Invitrogen) with 5 μM AraC and 5% CO2 at 36.5° C. DRG neurons were grown for 24 hr before use.
# as §1
# hTRPA1 [3] = target: T1, hTRPA1; assay: RNA pull-down assay and immunoblotting; assay type: binding
# Experimental: RNA Pull-Down Assay and Immunoblotting. hTRPA1-expressing HEK293 cells of equal amount (5×10^6) were plated onto 60 mm dishes, and 24 hr later, these cells were incubated with biotin-conjugated miR-711 or miR-711 (m6) in extracellular solution containing 140 mM NaCl, 5 mM KCl, 2 mM CaCl2, 1 mM MgCl2, 10 mM HEPES, and 10 mM glucose, adjusted to pH 7.4 for 15 min at 37° C. with 5% CO2. For crosslinking, 1% formaldehyde (vol/vol) was added at 37° C. for 10 min, then 12.5% glycine was applied to stop crosslinking by 5 min incubation at room temperature. Then the cells were collected and sonicated with ultrosonic probe sonicator (80% output, 5 s on and 10 s off) in 1 mL lysis buffer (1% Triton X-100, 50 mM Tris-HCl, 150 mM NaCl, 5 mM EDTA, pH7.4) on ice for 2 min. We then centrifuged the lysate at 13,000 rpm for 10 min at 4° C. and took 50 μL supernatant as lysate control. The remaining supernatant was added 20 μL streptadvilin agrose beads and incubated overnight. The pellets were collected after centrifuge at 6000 rmp for 30 s. For competing assay, miR-711 (10-50 μM) or mutant miR-711 (m6, 10-50 μM) were added 15 min before the incubation with biotin-conjugated miR-711 (10 μM). For immunoblotting, the lysates or beads were incubated in SDS-PAGE loading buffer for 30 min at 50° C., and supernatant was collected after centrifugation at 13000 rpm and decrosslink at 99° C. for 20 min. The samples were separated on an SDS-PAGE gel, transferred, and probed with TRPA1 antibody (1:1000; Alomone labs). The immunoreactive bands were detected with horseradish peroxidase-conjugated secondary antibody, visualized with enhanced chemiluminescence (Thermo scientific, Pittsburgh, Pa.), and quantified with Image-Pro Plus software (Media Cybernetics, Bethesda, Md.). Each experiment was repeated at least three times.
# [4] = miR-711 50 μM, histamine 500 μM, CQ 1,000 μM, AITC 200 μM
# T1 sequence (O75762 whole entry): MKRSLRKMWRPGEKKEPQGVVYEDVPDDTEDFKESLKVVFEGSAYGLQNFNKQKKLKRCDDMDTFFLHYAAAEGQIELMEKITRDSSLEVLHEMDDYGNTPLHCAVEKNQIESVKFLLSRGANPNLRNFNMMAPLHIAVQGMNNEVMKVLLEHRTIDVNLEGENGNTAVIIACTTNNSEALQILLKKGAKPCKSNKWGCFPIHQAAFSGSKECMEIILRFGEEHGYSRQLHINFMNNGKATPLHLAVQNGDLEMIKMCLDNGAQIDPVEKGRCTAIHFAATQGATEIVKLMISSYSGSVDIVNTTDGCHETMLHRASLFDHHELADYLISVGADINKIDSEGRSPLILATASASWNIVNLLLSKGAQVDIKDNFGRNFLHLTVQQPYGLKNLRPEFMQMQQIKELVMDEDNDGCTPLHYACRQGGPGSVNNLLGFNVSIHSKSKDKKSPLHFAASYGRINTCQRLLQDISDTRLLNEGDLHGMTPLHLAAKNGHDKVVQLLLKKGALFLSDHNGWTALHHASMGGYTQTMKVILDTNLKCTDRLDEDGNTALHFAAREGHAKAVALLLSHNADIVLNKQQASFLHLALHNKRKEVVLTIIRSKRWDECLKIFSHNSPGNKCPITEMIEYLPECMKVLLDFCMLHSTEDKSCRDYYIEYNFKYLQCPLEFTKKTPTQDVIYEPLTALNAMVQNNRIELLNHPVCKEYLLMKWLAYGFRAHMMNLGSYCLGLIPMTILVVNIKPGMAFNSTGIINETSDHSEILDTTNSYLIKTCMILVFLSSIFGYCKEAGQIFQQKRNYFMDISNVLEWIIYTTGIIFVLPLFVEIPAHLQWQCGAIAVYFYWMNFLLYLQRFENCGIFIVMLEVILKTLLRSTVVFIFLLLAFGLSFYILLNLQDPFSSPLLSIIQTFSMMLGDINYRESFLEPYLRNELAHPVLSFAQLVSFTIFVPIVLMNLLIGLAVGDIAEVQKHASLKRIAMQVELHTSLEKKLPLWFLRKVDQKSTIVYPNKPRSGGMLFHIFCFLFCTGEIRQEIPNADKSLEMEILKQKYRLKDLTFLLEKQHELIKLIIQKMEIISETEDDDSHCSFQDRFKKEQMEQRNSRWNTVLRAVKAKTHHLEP
compound,measurement,setting,value
"CCC(=N\O)/C(C)=C/c1ccc(F)cc1 [A967079, (1E,3E)-1-(4-Fluorophenyl)-2-methyl-1-pentene-3-one oxime]",block of miR-711-evoked currents,hTRPA1 [1]; A967079 10 and 50 μM,dose-dependently blocked
same,block of miR-711-evoked calcium responses in DRG neurons,"DRG neurons; miR-711 50 μM, A967079 10 μM",completely blocked
same,block of miR-711-induced action potentials,[2]; A967079 10 μM,blocked
same,block of miR-711-induced inward currents in DRG neurons,[2]; A967079 10 μM,blocked
miR-711: mmu-miR-711: gggacccggggagagauguaag (SEQ ID NO: 5) (GGGACCCGGGGAGAGAUGUAAG; chemistry not given here),desensitization of TRPA1 after second application,hTRPA1 [1]; 10 μM,did not induce obvious desensitization
same,current-voltage relationship,"hTRPA1 [1]; 10 μM, I/V curve",outward rectification
same,reversal potential of evoked current,"hTRPA1 [1]; 10 μM, I/V curve",0 mV
same,inward currents,"hTRPA1 [1]; bath application, miRNAs and core sequence 10 μM, AITC 50 μM",produced inward currents
same,potency for inducing TRPA1 activation (dose-response curve),hTRPA1 [1]; compared with AITC,more potent than AITC
same,latency of inward currents,"hTRPA1 [1]; miR-711 10 μM versus AITC 50 μM, bath perfusion",shorter than that of AITC
same,calcium signaling in DRG neurons,DRG neurons; 10 μM,did not evoke meaningful calcium signaling
same,DRG neurons showing Ca2+ increase / responses,DRG neurons; [4],3.9%
same,DRG neurons showing calcium responses,"DRG neurons; miR-711 50 μM, 15 of 310 neurons",4.8%
same,action potentials in small-diameter DRG neurons,"[2]; 10 μM, WT mice",induced action potentials
same,inward currents in small-diameter DRG neurons,"[2]; 10 μM, WT mice",induced rapid inward currents
same,small-diameter neurons responding with inward currents or action potentials,[2],11.5%
same,miR-711-induced excitation (action potentials),[2]; TRPA1-deficient neurons,lost
same,miR-711-induced inward currents in DRG neurons of knockout mice,[2]; Trpa1 knockout mice,abolished
same,action potential duration,[2]; compared with AITC,shorter duration
same,after-hyperpolarization of the action potentials,[2]; compared with AITC,did not differ
same,competition with binding of biotin-labeled miR-711 to TRPA1,hTRPA1 [3]; 10-50 μM added 15 min before biotin-conjugated miR-711 (10 μM),inhibited the binding
NH2-FRNELAYPVLTFGQL-COOH (H-FRNELAYPVLTFGQL-OH) [blocking peptide],effect on AITC-induced inward current,hTRPA1 [1]; peptide 25 μM,did not affect
same,inhibition of miR-711-induced TRPA1 inward currents,hTRPA1 [1]; peptide 25 μM,suppressed
same,disruption of the miR-711/TRPA1 interaction,hTRPA1 [3]; RNA pull-down,disrupted the miR-711/TRPA1 interaction
C=CCN=C=S [AITC],miR-711-responsive DRG neurons that also responded,"DRG neurons; histamine 500 μM, CQ 1,000 μM, AITC 200 μM",all
same,DRG neurons showing Ca2+ increase / responses,DRG neurons; [4],22.6%
same,small-diameter neurons responding with inward currents or action potentials,[2],16.7%
